Assay results from patent publication US20110165266A1 (priority 2008, published 2011).

Tested on: ASLV-A vector RCASBP(A)-AP
Assay type: cell-based, avian sarcoma and leukosis virus (ASLV-A)

## [O-][Cl+2]([O-])O [chlorate]
  influence on infection by ASLV-A vector: did not influence infection
